Measurements published in patent US20220186188A1, “Method for Obtaining Pancreatic Progenitor Cells and Pancreatic Islet Beta Cells By Means of Differentiation of Human Pluripotent Stem Cells” (Asia Regenerative Medicine, Ltd., priority 2019, published 2022).

Key:
[1] = tested on: pancreatic progenitor cells differentiated from human induced pluripotent stem cells; experiment: Flow cytometry detection of PDX1 in the pancreatic progenitor cell stage (human induced pluripotent stem cells); format: cell-based; settings: 2 μM inhibitor in pancreatic progenitor cell medium, 5 days, compared with control group without WNT inhibitor
Procedure: (§1) a pancreatic progenitor cell medium was prepared, the medium in step 1) was replaced with the pancreatic progenitor cell medium, and the cells were cultured in a carbon dioxide incubator at 37 degrees Celsius for 5 days, during which the medium was replaced every day, wherein the composition of the pancreatic progenitor cell medium was: with an MCDB131 medium as a basic medium, and the following components at the working concentrations were further included: 0.5% of bovine serum albumin (BSA), 1.5 g/L of sodium bicarbonate, 1×glutamine (GlutaMAX), 10 mM glucose, […] vitamin C, 1×insulin-transferrin-selenium-ethanolamine additive (ITS-X), 50 ng/ml of fibroblast growth factor (KGF), 0.5 μM SANT1 (with smo as an inhibitor target), 100 nM retinoic acid (TTNPB), 500 nM phorbol 12,13-dibutyrate (PDBu), 2 μM ALK inhibitor (K02288), and 2 μM WNT signaling pathway inhibitor XAV-939 (not added in a control group), with the concentrations all being final concentrations. […]

[2] = tested on: pancreatic progenitor cells and pancreatic islet β cells differentiated from human induced pluripotent stem cells; experiment: Real-time fluorescence quantitative PCR of PDX1, NKX6-1 and INS mRNA (human induced pluripotent stem cells); format: cell-based; settings: qPCR
Procedure: as §1

[3] = 2 μM inhibitor in pancreatic progenitor cell stage, GAPDH reference

Oc1nc(-c2ccc(C(F)(F)F)cc2)nc2c1CSCC2 [XAV-939]
PDX1-positive pancreatic progenitor cells (flow cytometry) [1]: significantly increased
transcription level of the insulin gene INS in the mature pancreatic islet β cell stage ([2]; 2 μM inhibitor added in pancreatic progenitor cell stage): greatly increased
relative expression of mRNA of NKX6-1 in pancreatic progenitor cells [2, 3]: significantly increased
relative expression of mRNA of PDX1 in pancreatic progenitor cells [2, 3]: significantly increased
